Measured values: paper PMC11643494, “Structure–Activity Relationship Studies in a Series of 2-Aryloxy-N-(pyrimidin-5-yl)acetamide Inhibitors of SLACK Potassium Channels” (Molecules, 2024)

Target: T1, WT human SLACK (Homo sapiens, UniProt Q5JUK3)
T1 construct: host or cells: CHO-K1
T1 sequence (Q5JUK3 1-1235 isoform Q5JUK3-3): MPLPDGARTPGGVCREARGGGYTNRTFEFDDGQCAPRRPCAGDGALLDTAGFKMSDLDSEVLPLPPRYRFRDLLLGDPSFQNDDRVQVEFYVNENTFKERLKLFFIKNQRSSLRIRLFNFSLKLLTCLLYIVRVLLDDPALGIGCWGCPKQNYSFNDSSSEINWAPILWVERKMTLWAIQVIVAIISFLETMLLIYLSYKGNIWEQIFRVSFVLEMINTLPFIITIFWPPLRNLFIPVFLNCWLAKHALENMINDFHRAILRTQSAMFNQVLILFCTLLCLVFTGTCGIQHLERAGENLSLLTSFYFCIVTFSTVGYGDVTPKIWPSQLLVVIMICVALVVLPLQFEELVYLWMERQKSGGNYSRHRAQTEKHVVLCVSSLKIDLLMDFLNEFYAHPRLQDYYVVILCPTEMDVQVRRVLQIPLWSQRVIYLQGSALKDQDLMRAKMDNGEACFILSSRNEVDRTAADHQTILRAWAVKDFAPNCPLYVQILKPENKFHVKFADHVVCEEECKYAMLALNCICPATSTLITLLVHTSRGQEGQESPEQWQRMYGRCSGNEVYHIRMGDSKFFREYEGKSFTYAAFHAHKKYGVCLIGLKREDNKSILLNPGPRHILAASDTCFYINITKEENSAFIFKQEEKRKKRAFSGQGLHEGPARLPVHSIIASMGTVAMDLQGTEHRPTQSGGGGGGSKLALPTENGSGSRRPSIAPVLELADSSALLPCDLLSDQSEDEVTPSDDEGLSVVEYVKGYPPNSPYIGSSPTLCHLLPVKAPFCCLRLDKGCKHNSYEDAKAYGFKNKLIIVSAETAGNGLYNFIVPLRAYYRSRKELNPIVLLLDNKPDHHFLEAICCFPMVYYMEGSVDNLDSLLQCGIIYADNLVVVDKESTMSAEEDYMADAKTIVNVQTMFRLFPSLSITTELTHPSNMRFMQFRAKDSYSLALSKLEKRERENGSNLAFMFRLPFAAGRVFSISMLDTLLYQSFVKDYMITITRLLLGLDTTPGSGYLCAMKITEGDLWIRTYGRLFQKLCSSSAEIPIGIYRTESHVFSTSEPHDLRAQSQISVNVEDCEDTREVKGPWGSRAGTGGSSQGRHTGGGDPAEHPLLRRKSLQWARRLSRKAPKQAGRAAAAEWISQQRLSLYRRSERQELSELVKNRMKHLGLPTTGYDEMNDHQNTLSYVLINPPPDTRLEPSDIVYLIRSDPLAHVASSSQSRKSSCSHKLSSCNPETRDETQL
Experiment: Whole-cell automated patch clamp (APC) in CHO-K1 cells stably expressing WT human SLACK
Format: cell-based
Settings: for IC50: APC, CHO-K1 cells stably expressing WT human SLACK, averages (n ≥ 3); for SLACK Imax: maximum inhibition at 30 µM test compound standardized to VU0606170 (set at 100%), WT human SLACK
Protocol: Using concentrations ranging from 0.125 to 30 µM in half-log steps, a concentration–response relationship was generated for each new analog using our APC assay in CHO-K1 cells stably expressing WT SLACK. A minimum of three cells, i.e., replicates, were collected per concentration for each analog.
Automated patch clamp recording was performed with a SyncroPatch 768 PE system (Nanion, Munich, Germany) as previously described. Whole-cell recordings were performed at room temperature. Cells were harvested by first washing with PBS without Mg^2+ or Ca^2+ (Gibco, Billings, MT, USA) to remove cell culture medium, followed by dissociation with TryPLE (Gibco, Billings, MT, USA). Cells were then resuspended and diluted to 200,000 cells/mL in external solution. External solution contained 105 mM NaCl, 4 mM KCl, 1 mM MgCl2, 5 mM CaCl2, 10 mM HEPES, 40 mM N-Methyl-D-glucamine chloride, titrated to pH 7.4 with NaOH and osmolarity of 300 mOsm/kg; internal solution contained 70 mM NaCl, 70 mM KF, 10 mM KCl, 5 mM EGTA, 5mM HEPES, titrated to a pH 7.2 with KOH and osmolarity of 295 mOsm/kg.
The APC protocol was set as following: Cells were held at […] −80 mV for 100 ms, then a ramp protocol was performed from −100 mV to 80 mV at 0.4 mV/ms, hold the cell at −80 mV for another 100 ms, then steps were performed at −20 mV, 0 mV, +20 mV, +40 mV, and +60 mV for 100 ms of each step. Whole-cell currents were measured at 0 mV and normalized to current after external buffer addition.

Row | SMILES | IC50 [µM] | SLACK Imax [%] | Fold improvement in potency relative to 10 (WT SLACK APC IC50) [fold]
1 | CN(c1ccc(C#N)cc1)c1ncc(NC(=O)C(C)(C)Oc2ccc(Cl)cc2)cn1 [Analog 66] | 0.91 | 95 | 
2 | CC(C)(Oc1ccc(Cl)cc1)C(=O)Nc1cnc(Oc2c(F)cccc2F)nc1 [Analog 40] | 0.52 | 98 | ~3
